Laboratory results reported in patent US10611730B2, “Benzimidazolone and benzothiazolone compounds and their use as AMPA receptor modulators” (Janssen Pharmaceutica NV, priority 2015, dated 2020).

The molecules below were run against TARP γ8 dependent AMPA receptor (GluA1o-g8 fusion channel) (Homo sapiens (Human), UniProt P42261+Q8WXS5) (assay: Calcium flux assay (FLIPR), HEK293 cells expressing GRIA1o-CACNG8 fusion). Settings: inhibition of calcium flux after 15 μM glutamate, read-out: GluR1-γ8 pIC50 (converted).
Sequence of TARP γ8 dependent AMPA receptor (GluA1o-g8 fusion channel) (P42261 other isoform, or with tags, fused parts or gaps): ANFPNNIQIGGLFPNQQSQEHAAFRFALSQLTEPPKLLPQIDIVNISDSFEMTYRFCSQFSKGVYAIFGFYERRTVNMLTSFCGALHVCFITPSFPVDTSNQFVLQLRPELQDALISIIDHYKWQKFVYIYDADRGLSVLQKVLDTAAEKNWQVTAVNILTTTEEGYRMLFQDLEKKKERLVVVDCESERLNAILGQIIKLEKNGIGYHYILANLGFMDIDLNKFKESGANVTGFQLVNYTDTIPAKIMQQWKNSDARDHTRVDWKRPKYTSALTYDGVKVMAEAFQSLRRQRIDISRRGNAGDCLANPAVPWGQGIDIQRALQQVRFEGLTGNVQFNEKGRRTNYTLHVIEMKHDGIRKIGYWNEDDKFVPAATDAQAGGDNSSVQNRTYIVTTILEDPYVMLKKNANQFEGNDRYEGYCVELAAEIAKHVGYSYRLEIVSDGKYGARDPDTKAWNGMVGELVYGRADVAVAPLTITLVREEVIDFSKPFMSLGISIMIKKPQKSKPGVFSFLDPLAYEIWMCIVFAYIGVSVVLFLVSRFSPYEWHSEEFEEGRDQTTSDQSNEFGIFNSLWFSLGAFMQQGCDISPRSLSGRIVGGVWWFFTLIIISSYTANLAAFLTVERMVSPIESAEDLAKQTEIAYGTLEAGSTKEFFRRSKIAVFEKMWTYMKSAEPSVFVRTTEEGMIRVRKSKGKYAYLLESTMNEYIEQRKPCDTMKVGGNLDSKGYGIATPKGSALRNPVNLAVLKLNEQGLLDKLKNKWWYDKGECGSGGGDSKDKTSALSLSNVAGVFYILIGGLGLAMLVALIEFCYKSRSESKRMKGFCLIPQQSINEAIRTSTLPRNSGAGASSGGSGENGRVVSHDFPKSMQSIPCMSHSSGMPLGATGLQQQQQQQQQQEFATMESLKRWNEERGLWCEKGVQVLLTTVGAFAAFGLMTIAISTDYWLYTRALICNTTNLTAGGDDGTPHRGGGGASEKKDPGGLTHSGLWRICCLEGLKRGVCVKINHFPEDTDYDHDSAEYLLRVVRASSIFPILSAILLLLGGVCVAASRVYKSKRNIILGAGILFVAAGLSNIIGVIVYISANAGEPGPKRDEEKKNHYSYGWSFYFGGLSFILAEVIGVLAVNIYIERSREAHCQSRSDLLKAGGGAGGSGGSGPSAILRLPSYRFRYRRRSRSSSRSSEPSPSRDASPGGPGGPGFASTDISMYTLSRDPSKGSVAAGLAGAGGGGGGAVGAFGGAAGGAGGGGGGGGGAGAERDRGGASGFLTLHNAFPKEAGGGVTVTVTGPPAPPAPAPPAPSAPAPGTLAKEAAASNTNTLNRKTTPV
Type: cell-based
Text: This assay was used to test compounds for their ability to inhibit TARP γ8 dependent AMPA receptor activity.
An in vitro assay was used to determine the potency of test compounds as inhibitors of the glutamate response of the channel formed by GluA1o-g8. To ensure a 1:1 stoichiometry of GluA1o and g8 subunits in the expressed channel, a fusion of the cDNAs for GRIA1o and CACNG8 was used. […] A clonal cell line in HEK293 cells stably expressing this construct, with a geneticin selection marker, was generated for use in this assay. Cell expressing the GRIAlo-CACNG8 fusion construct were grown in a monolayer in 96- or 384-well microtiter plates. […] The cells were then loaded with a calcium-sensitive dye (Calcium-5 or Calcium-6, Molecular Devices) and the test compounds at a range of concentrations.
The fluorescence in each well was normalized to the fluorescence of negative and positive control wells. […] The responses to glutamate as functions of the test compound concentrations were fitted to a four-parameter logistic function. The fitted parameter corresponding to the midpoint was taken to be the potency of inhibition of the compound.
`O=c1[nH]c2ccc(-c3c(Cl)cccc3OCC3CC3(F)F)cc2[nH]1` (racemic) [Example 93, (±)-5-[2-Chloro-6-[(2,2-difluorocyclopropyl)methoxy]phenyl]-1,3-dihydrobenzimidazol-2-one] was tested, and the IC50 was 20 nM.
For `O=c1[nH]c2ccc(-c3cccc(OCC4CC4(F)F)c3Cl)cc2[nH]1` (racemic) [Example 111, (±)-5-[2-Chloro-3-[(2,2-difluorocyclopropyl)methoxy]phenyl]-1,3-dihydrobenzimidazol-2-one], the IC50 was 50.1 nM.
Work on `CC(Oc1cccc(Cl)c1-c1ccc2[nH]c(=O)[nH]c2c1)C(F)(F)F` (racemic) [Example 118, (±)-5-[2-Chloro-6-(2,2,2-trifluoro-1-methyl-ethoxy)phenyl]-1,3-dihydrobenzimidazol-2-one] yielded an IC50 of 31.6 nM.
`COc1cccc(OC(C)C(F)(F)F)c1-c1ccc2[nH]c(=O)[nH]c2c1` (racemic) [Example 121, (±)-5-[2-Methoxy-6-(2,2,2-trifluoro-1-methyl-ethoxy)phenyl]-1,3-dihydrobenzimidazol-2-one] showed an IC50 of 158 nM.
`CC(C#N)c1cccc(Cl)c1-c1ccc2[nH]c(=O)[nH]c2c1` (racemic) [Example 126, (±)-2-[3-Chloro-2-(2-oxo-1,3-dihydrobenzimidazol-5-yl)phenyl]propanenitrile] showed an IC50 of 12.6 nM.
With `O=c1[nH]c2ccc(-c3cccc(CN4CCOC(C(F)(F)F)C4)c3Cl)cc2[nH]1` (racemic) [Example 144, (±)-5-[2-Chloro-3-[[2-(trifluoromethyl)morpholin-4-yl]methyl]phenyl]-1,3-dihydrobenzimidazol-2-one] the IC50 was 126 nM.
Work on `Cc1c(CN2CCOC(C)C2)cccc1-c1ccc2[nH]c(=O)[nH]c2c1` (racemic) [Example 150, (±)-5-[2-Methyl-3-[(2-methylmorpholin-4-yl)methyl]phenyl]-1,3-dihydrobenzimidazol-2-one] yielded an IC50 of 200 nM.
`Cc1c(CN2CCOC(C(F)(F)F)C2)cccc1-c1ccc2[nH]c(=O)[nH]c2c1` (racemic) [Example 151, (±)-5-[2-Methyl-3-[[2-(trifluoromethyl)morpholin-4-yl]methyl]phenyl]-1,3-dihydrobenzimidazol-2-one] was tested, and the IC50 was 31.6 nM.
`C[C@@H](Oc1cccc(Cl)c1-c1ccc2[nH]c(=O)[nH]c2c1)C(F)(F)F` (single isomer, unassigned) [Example 119, (R*)-5-[2-Chloro-6-(2,2,2-trifluoro-1-methyl-ethoxy)phenyl]-1,3-dihydrobenzimidazol-2-one] was tested, and the IC50 was 50.1 nM.
Work on `C[C@H](Oc1cccc(Cl)c1-c1ccc2[nH]c(=O)[nH]c2c1)C(F)(F)F` (single isomer, unassigned) [Example 120, (S*)-5-[2-Chloro-6-(2,2,2-trifluoro-1-methyl-ethoxy)phenyl]-1,3-dihydrobenzimidazol-2-one] yielded an IC50 of 79.4 nM.
In the case of `Cc1c(CN2CCOCC2C)cccc1-c1ccc2[nH]c(=O)[nH]c2c1` (stereo in doubt) [Example 152, (3R)-5-[2-Methyl-3-[[3-methylmorpholin-4-yl]methyl]phenyl]-1,3-dihydrobenzimidazol-2-one], the IC50 is reported as 1000 nM.
For `Cc1c(CN2CCOCC2C)cccc1-c1ccc2[nH]c(=O)[nH]c2c1` (stereo in doubt) [Example 153, (3S)-5-[2-Methyl-3-[[3-methylmorpholin-4-yl]methyl]phenyl]-1,3-dihydrobenzimidazol-2-one], the IC50 was 316 nM.
In the case of `Cc1c(CN2CC[C@H](O)[C@H](F)C2)cccc1-c1ccc2[nH]c(=O)[nH]c2c1` (stereo in doubt) [Example 159, (3R,4S)-5-[3-[[3-Fluoro-4-hydroxy-1-piperidyl]methyl]-2-methyl-phenyl]-1,3-dihydrobenzimidazol-2-one], the IC50 is reported as 6310 nM.
`Cc1cccc(-c2ccc3[nH]c(=O)[nH]c3c2)c1C` [Example 1, 5-(2,3-Dimethylphenyl)-1,3-dihydrobenzimidazol-2-one] gave an IC50 of 251 nM.
`Cc1ccccc1-c1ccc2[nH]c(=O)[nH]c2c1` [Example 3, 5-(o-Tolyl)-1,3-dihydrobenzimidazol-2-one] showed an IC50 of 1260 nM.
Molecule `O=c1[nH]c2ccc(-c3ccccc3C(F)(F)F)cc2[nH]1` [Example 4, 5-[2-(Trifluoromethyl)phenyl]-1,3-dihydrobenzimidazol-2-one] has an IC50 of 501 nM.
Molecule `O=c1[nH]c2ccc(-c3ccccc3-c3ccccc3)cc2[nH]1` [Example 5, 5-(2-Phenylphenyl)-1,3-dihydrobenzimidazol-2-one] has an IC50 of 100 nM.
`CC(C)c1ccccc1-c1ccc2[nH]c(=O)[nH]c2c1` [Example 6, 5-(2-Isopropylphenyl)-1,3-dihydrobenzimidazol-2-one] gave an IC50 of 316 nM.
In the case of `COc1cccc(OC)c1-c1ccc2[nH]c(=O)[nH]c2c1` [Example 7, 5-(2,6-Dimethoxyphenyl)-1,3-dihydrobenzimidazol-2-one], the IC50 is reported as 1260 nM.
`CC(C)Oc1ccccc1-c1ccc2[nH]c(=O)[nH]c2c1` [Example 8, 5-(2-Isopropoxyphenyl)-1,3-dihydrobenzimidazol-2-one] was tested, and the IC50 was 2000 nM.
With `CC(C)(C)OC(=O)N1CCN(c2ccccc2-c2ccc3[nH]c(=O)[nH]c3c2)CC1` [Example 9, tert-Butyl 4-[2-(2-oxo-1,3-dihydrobenzimidazol-5-yl)phenyl]piperazine-1-carboxylate] the IC50 was 794 nM.
Work on `Cc1ccc(Cl)cc1-c1ccc2[nH]c(=O)[nH]c2c1` [Example 10, 5-(5-Chloro-2-methyl-phenyl)-1,3-dihydrobenzimidazol-2-one] yielded an IC50 of 251 nM.
`CC(C)Oc1cccc(F)c1-c1ccc2[nH]c(=O)[nH]c2c1` [Example 11, 5-(2-Fluoro-6-isopropoxy-phenyl)-1,3-dihydrobenzimidazol-2-one] was tested, and the IC50 was 501 nM.
`O=c1[nH]c2ccc(-c3c(Cl)cccc3C(F)(F)F)cc2[nH]1` [Example 12, 5-[2-Chloro-6-(trifluoromethyl)phenyl]-1,3-dihydrobenzimidazol-2-one] gave an IC50 of 631 nM.
For `O=c1[nH]c2ccc(-c3ccccc3OCC3CC3)cc2[nH]1` [Example 13, 5-[2-(Cyclopropylmethoxy)phenyl]-1,3-dihydrobenzimidazol-2-one], the IC50 was 398 nM.
Molecule `Cc1ccc(OCC(C)C)c(-c2ccc3[nH]c(=O)[nH]c3c2)c1` [Example 15, 5-(2-Isobutoxy-5-methyl-phenyl)-1,3-dihydrobenzimidazol-2-one] has an IC50 of 31.6 nM.
`CC(C)Oc1ccc(Cl)cc1-c1ccc2[nH]c(=O)[nH]c2c1` [Example 16, 5-(5-Chloro-2-isopropoxy-phenyl)-1,3-dihydrobenzimidazol-2-one] was tested, and the IC50 was 316 nM.
Work on `O=c1[nH]c2ccc(-c3ccccc3Cl)cc2[nH]1` [Example 17, 5-(2-Chlorophenyl)-1,3-dihydrobenzimidazol-2-one] yielded an IC50 of 631 nM.
Molecule `O=c1[nH]c2ccc(-c3cc(Cl)ccc3Cl)cc2[nH]1` [Example 18, 5-(2,5-Dichlorophenyl)-1,3-dihydrobenzimidazol-2-one] has an IC50 of 251 nM.
Molecule `Cc1ccc(Cl)c(-c2ccc3[nH]c(=O)[nH]c3c2)c1` [Example 19, 5-(2-Chloro-5-methyl-phenyl)-1,3-dihydrobenzimidazol-2-one] has an IC50 of 200 nM.
`COc1cccc(Cl)c1-c1ccc2[nH]c(=O)[nH]c2c1` [Example 20, 5-(2-Chloro-6-methoxy-phenyl)-1,3-dihydrobenzimidazol-2-one] was tested, and the IC50 was 251 nM.
For `Cc1ccc(C)c(-c2ccc3[nH]c(=O)[nH]c3c2)c1` [Example 21, 5-(2,5-Dimethylphenyl)-1,3-dihydrobenzimidazol-2-one], the IC50 was 398 nM.
`CC(C)Oc1ccc(C(F)(F)F)cc1-c1ccc2[nH]c(=O)[nH]c2c1` [Example 22, 5-[2-Isopropoxy-5-(trifluoromethyl)phenyl]-1,3-dihydrobenzimidazol-2-one] gave an IC50 of 316 nM.
For `Cc1ccc(Cl)c(-c2ccc3[nH]c(=O)[nH]c3c2)c1Cl` [Example 23, 5-(2,6-Dichloro-3-methyl-phenyl)-1,3-dihydrobenzimidazol-2-one], the IC50 was 15.8 nM.
Work on `O=c1[nH]c2ccc(-c3ccccc3Oc3ccccc3)cc2[nH]1` [Example 24, 5-(2-Phenoxyphenyl)-1,3-dihydrobenzimidazol-2-one] yielded an IC50 of 501 nM.
`O=c1[nH]c2ccc(-c3cc(C(F)(F)F)ccc3Cl)cc2[nH]1` [Example 25, 5-[2-Chloro-5-(trifluoromethyl)phenyl]-1,3-dihydrobenzimidazol-2-one] showed an IC50 of 251 nM.
`O=c1[nH]c2ccc(-c3c(F)cccc3OCc3ccccc3)cc2[nH]1` [Example 26, 5-(2-Benzyloxy-6-fluoro-phenyl)-1,3-dihydrobenzimidazol-2-one] showed an IC50 of 100 nM.
In the case of `O=Cc1cccc(F)c1-c1ccc2[nH]c(=O)[nH]c2c1` [Example 27, 3-Fluoro-2-(2-oxo-1,3-dihydrobenzimidazol-5-yl)benzaldehyde], the IC50 is reported as 1580 nM.
Work on `COc1cccc(OC(C)C)c1-c1ccc2[nH]c(=O)[nH]c2c1` [Example 28, 5-(2-Isopropoxy-6-methoxy-phenyl)-1,3-dihydrobenzimidazol-2-one] yielded an IC50 of 79.4 nM.
Work on `O=c1[nH]c2ccc(-c3cccc(Cl)c3OC(F)(F)F)cc2[nH]1` [Example 29, 5-[3-Chloro-2-(trifluoromethoxy)phenyl]-1,3-dihydrobenzimidazol-2-one] yielded an IC50 of 31.6 nM.
`O=c1[nH]c2ccc(-c3ccc(OC(F)(F)F)cc3Cl)cc2[nH]1` [Example 30, 5-[2-Chloro-4-(trifluoromethoxy)phenyl]-1,3-dihydrobenzimidazol-2-one] gave an IC50 of 1580 nM.
Molecule `COc1cc(OC(F)(F)F)ccc1-c1ccc2[nH]c(=O)[nH]c2c1` [Example 33, 5-[2-Methoxy-4-(trifluoromethoxy)phenyl]-1,3-dihydrobenzimidazol-2-one] has an IC50 of 316 nM.
